Data from BindingDB's records for doi:10.1021/acs.jnatprod.9b01022 (Taipei Chang Gung Memorial Hospital, 2020).

Columns and labels:
[1] = Reversal of ABCG2 (unknown origin)-mediated multidrug resistance in human H460-MX20 cells assessed as effect on topotecan-induced cytotoxicity by measuring topotecan IC50 at 1 uM after 72 hrs by MTT assay (Rvb = 1319.20 +/- 356.14 nM)
[2] = Reversal of human ABCG2-mediated multidrug resistance in HEK293/R482 cells assessed as effect on topotecan-induced cytotoxicity by measuring topotecan IC50 at 1 uM after 72 hrs by CCK8 assay (Rvb = 201.31 +/- 25.89 nM)
[3] = Reversal of human ABCG2-mediated multidrug resistance in HEK293/R482 cells assessed as effect on mitoxantrone-induced cytotoxicity by measuring mitoxantrone IC50 at 2 uM after 72 hrs by CCK8 assay (Rvb = 50.66 +/- 6.88 nM)
[4] = Reversal of ABCG2 (unknown origin)-mediated multidrug resistance in human S1-M1-80 cells assessed as effect on mitoxantrone-induced cytotoxicity by measuring mitoxantrone IC50 at 2 uM after 72 hrs by MTT assay (Rvb = 73.62 +/- 7.20 uM)
[5] = Reversal of human ABCG2-mediated multidrug resistance in HEK293/R482 cells assessed as effect on mitoxantrone-induced cytotoxicity by measuring mitoxantrone IC50 at 0.5 uM after 72 hrs by CCK8 assay (Rvb = 50.66 +/- 6.88 nM)
[6] = Reversal of ABCG2 (unknown origin)-mediated multidrug resistance in human H460-MX20 cells assessed as effect on mitoxantrone-induced cytotoxicity by measuring mitoxantrone IC50 at 3 uM after 72 hrs by MTT assay (Rvb = 1160.60 +/- 365.72 nM)
[7] = Reversal of human ABCG2-mediated multidrug resistance in HEK293/R482 cells assessed as effect on topotecan-induced cytotoxicity by measuring topotecan IC50 at 0.5 uM after 72 hrs by CCK8 assay (Rvb = 201.31 +/- 25.89 nM)
[8] = Reversal of human ABCG2-mediated multidrug resistance in HEK293/R482 cells assessed as effect on topotecan-induced cytotoxicity by measuring topotecan IC50 at 3 uM after 72 hrs by CCK8 assay (Rvb = 201.31 +/- 25.89 nM)
[9] = Reversal of human ABCC1-mediated multidrug resistance in HEK293/MRP1 cells assessed as effect on etoposide-induced cytotoxicity by measuring etoposide IC50 at 1 uM after 72 hrs by CCK8 assay (Rvb = 63.34 +/- 7.92 uM)
[10] = Reversal of human ABCG2-mediated multidrug resistance in HEK293/R482 cells assessed as effect on topotecan-induced cytotoxicity by measuring topotecan IC50 at 2 uM after 72 hrs by CCK8 assay (Rvb = 201.31 +/- 25.89 nM)
[11] = Reversal of ABCG2 (unknown origin)-mediated multidrug resistance in human S1-M1-80 cells assessed as effect on mitoxantrone-induced cytotoxicity by measuring mitoxantrone IC50 at 3 uM after 72 hrs by MTT assay (Rvb = 73.62 +/- 7.20 uM)
[12] = Reversal of ABCG2 (unknown origin)-mediated multidrug resistance in human H460-MX20 cells assessed as effect on topotecan-induced cytotoxicity by measuring topotecan IC50 at 0.5 uM after 72 hrs by MTT assay (Rvb = 1319.20 +/- 356.14 nM)
[13] = Reversal of ABCG2 (unknown origin)-mediated multidrug resistance in human H460-MX20 cells assessed as effect on topotecan-induced cytotoxicity by measuring topotecan IC50 at 2 uM after 72 hrs by MTT assay (Rvb = 1319.20 +/- 356.14 nM)
[14] = Reversal of human ABCG2-mediated multidrug resistance in HEK293/R482 cells assessed as effect on mitoxantrone-induced cytotoxicity by measuring mitoxantrone IC50 at 3 uM after 72 hrs by CCK8 assay (Rvb = 50.66 +/- 6.88 nM)
[15] = Reversal of ABCG2 (unknown origin)-mediated multidrug resistance in human S1-M1-80 cells assessed as effect on mitoxantrone-induced cytotoxicity by measuring mitoxantrone IC50 at 1 uM after 72 hrs by MTT assay (Rvb = 73.62 +/- 7.20 uM)
[16] = Reversal of human ABCC1-mediated multidrug resistance in HEK293/MRP1 cells assessed as effect on etoposide-induced cytotoxicity by measuring etoposide IC50 at 0.5 uM after 72 hrs by CCK8 assay (Rvb = 63.34 +/- 7.92 uM)
[17] = Reversal of ABCG2 (unknown origin)-mediated multidrug resistance in human S1-M1-80 cells assessed as effect on topotecan-induced cytotoxicity by measuring topotecan IC50 at 0.5 uM after 72 hrs by MTT assay (Rvb = 10.14 +/- 2.820 uM)
[18] = Reversal of ABCG2 (unknown origin)-mediated multidrug resistance in human S1-M1-80 cells assessed as effect on mitoxantrone-induced cytotoxicity by measuring mitoxantrone IC50 at 0.5 uM after 72 hrs by MTT assay (Rvb = 73.62 +/- 7.20 uM)
[19] = Reversal of ABCG2 (unknown origin)-mediated multidrug resistance in human H460-MX20 cells assessed as effect on mitoxantrone-induced cytotoxicity by measuring mitoxantrone IC50 at 2 uM after 72 hrs by MTT assay (Rvb = 1160.60 +/- 365.72 nM)
[20] = Reversal of ABCG2 (unknown origin)-mediated multidrug resistance in human H460-MX20 cells assessed as effect on mitoxantrone-induced cytotoxicity by measuring mitoxantrone IC50 at 0.5 uM after 72 hrs by MTT assay (Rvb = 1160.60 +/- 365.72 nM)
[21] = Reversal of ABCG2 (unknown origin)-mediated multidrug resistance in human S1-M1-80 cells assessed as effect on topotecan-induced cytotoxicity by measuring topotecan IC50 at 2 uM after 72 hrs by MTT assay (Rvb = 10.14 +/- 2.820 uM)
[22] = Reversal of ABCG2 (unknown origin)-mediated multidrug resistance in human S1-M1-80 cells assessed as effect on topotecan-induced cytotoxicity by measuring topotecan IC50 at 1 uM after 72 hrs by MTT assay (Rvb = 10.14 +/- 2.820 uM)
[23] = Reversal of ABCG2 (unknown origin)-mediated multidrug resistance in human H460-MX20 cells assessed as effect on mitoxantrone-induced cytotoxicity by measuring mitoxantrone IC50 at 1 uM after 72 hrs by MTT assay (Rvb = 1160.60 +/- 365.72 nM)
[24] = Reversal of human ABCC1-mediated multidrug resistance in HEK293/MRP1 cells assessed as effect on etoposide-induced cytotoxicity by measuring etoposide IC50 at 2 uM after 72 hrs by CCK8 assay (Rvb = 63.34 +/- 7.92 uM)
[25] = Reversal of ABCG2 (unknown origin)-mediated multidrug resistance in human S1-M1-80 cells assessed as effect on topotecan-induced cytotoxicity by measuring topotecan IC50 at 3 uM after 72 hrs by MTT assay (Rvb = 10.14 +/- 2.820 uM)
[26] = Reversal of human ABCC1-mediated multidrug resistance in HEK293/MRP1 cells assessed as effect on etoposide-induced cytotoxicity by measuring etoposide IC50 at 3 uM after 72 hrs by CCK8 assay (Rvb = 63.34 +/- 7.92 uM)
[27] = Reversal of human ABCG2-mediated multidrug resistance in HEK293/R482 cells assessed as effect on mitoxantrone-induced cytotoxicity by measuring mitoxantrone IC50 at 1 uM after 72 hrs by CCK8 assay (Rvb = 50.66 +/- 6.88 nM)
[28] = Reversal of ABCG2 (unknown origin)-mediated multidrug resistance in human H460-MX20 cells assessed as effect on topotecan-induced cytotoxicity by measuring topotecan IC50 at 3 uM after 72 hrs by MTT assay (Rvb = 1319.20 +/- 356.14 nM)

Structure (SMILES): C=CC(C)(C)c1cc(/C=C/C(=O)c2ccc(O)cc2)c(OC)cc1O [3-(4-hydroxy-2-methoxy-5-(2-methylbut-3-en-2-yl)phenyl)-1-(4-hydroxyphenyl)prop-2-en-1-one]
- IC50 [1]: 144 nM
- IC50 [2]: 51 nM
- IC50 [3]: 7.8 nM
- IC50 [4]: 2630 nM
- IC50 [5]: 19 nM
- IC50 [6]: 70 nM
- IC50 [7]: 90 nM
- IC50 [8]: 42 nM
- IC50 [9]: 49300 nM
- IC50 [10]: 44 nM
- IC50 [11]: 1530 nM
- IC50 [12]: 367 nM
- IC50 [13]: 148 nM
- IC50 [14]: 6.2 nM
- IC50 [15]: 6800 nM
- IC50 [16]: 53600 nM
- IC50 [17]: 1030 nM
- IC50 [18]: 39500 nM
- IC50 [19]: 75 nM
- IC50 [20]: 442 nM
- IC50 [21]: 410 nM
- IC50 [22]: 610 nM
- IC50 [23]: 86 nM
- IC50 [24]: 66600 nM
- IC50 [25]: 310 nM
- IC50 [26]: 56500 nM
- IC50 [27]: 7.1 nM
- IC50 [28]: 130 nM
